What all share (type): cell-based
In experiment [1] the test system is E. coli, C. rodentium, S. nepalensis, E. fecalis. The experiment in a line: Anti-bacterial activity assay, over the four bacterial species. Particulars: 1U = dose needed to kill 50% of the bacteria (IC50). The protocol: (§1) Antimicrobial essays for the synthetic proteins were performed against Escherichia coli, Staphylococcus nepalensis, Enterococcus fecalis and Citrobacter rodentium. The first three species are common in small intestine in mice (where Paneth cells are relevant), while C. rodentium is a common pathogen in mice. To obtain cultures of the first three species, C57BL/6J mice were euthanized, ileum content harvested and diluted in sterile PBS and plated out on standard LB plates, overnight. Colonies were picked and species identified using Maldi-Toff [as previously described ([19])]. The relevant pure colonies of these three species were then grown on plates, identified once again, and grown in liquid LB and frozen at -80°C. The C. rodentium culture was strain ICC 169 and was obtained from ATCC.
Bacteria were grown in LB broth at 37°C in an incubation shaker (100rpm) until and OD between 0.8-1. For each peptide, a dilution set (800 µl/peptide) derived from the stock solution was prepared in such manner to obtain a final volume of 1 ml with peptide concentrations of 20 µg/ml, 10 µg/ml, 4 µg/ml and 2 µg/ml. Bacteria grown in LB broth where diluted to OD 0.2. For each bacterium, 200 µl of the OD 0.2 solution was added to each of the peptide dilutions and incubated at 37°C for four hours at 55 rpm. […] The plates were incubated at 37°C overnight after which colonies per plate were counted and tabulated. […]

A further experiment concerns Enterococcus fecalis. The experiment in a line: Anti-bacterial activity assay (colony counts after peptide titration). As to conditions: 1U = dose needed to kill 50% of the bacteria (IC50); peptide 20, 10, 4, 2 µg/ml; 4 h at 37°C; colonies counted on LB agar; logistic 4 parameter model (drda); isolate from mouse ileum; means of two independent experiments. The method, then: as §1
(§2) Bacteria were grown in LB broth at 37°C in an incubation shaker (100rpm) until and OD between 0.8-1. For each peptide, a dilution set (800 µl/peptide) derived from the stock solution was prepared in such manner to obtain a final volume of 1 ml with peptide concentrations of 20 µg/ml, 10 µg/ml, 4 µg/ml and 2 µg/ml. Bacteria grown in LB broth where diluted to OD 0.2. For each bacterium, 200 µl of the OD 0.2 solution was added to each of the peptide dilutions and incubated at 37°C for four hours at 55 rpm. After incubation 100 µl of the incubated mixture was plated out on LB agar plates at two concentrations: undiluted and 1:10 diluted. The plates were incubated at 37°C overnight after which colonies per plate were counted and tabulated. The highest plated out concentration that still had individually distinguishable colonies was used.
(§3) The R package “drda” ([20]) was used to perform a dose-response analysis using the logistic 4 parameter model. The concentration that inhibits growth by 50%, IC50, was obtained from the models for each combination of bacterium and peptide and converted into per peptide specific activity.

Experiment [2] concerns Citrobacter rodentium strain ICC 169. Described as above. Particulars: 1U = dose needed to kill 50% of the bacteria (IC50), peptide 20, 10, 4, 2 µg/ml, 4 h at 37°C, colonies counted on LB agar, logistic 4 parameter model (drda), means of two independent experiments. The method, then: as §1, §2, §3
For experiment [3], the system named is Staphylococcus nepalensis. The experiment is described as above. As to conditions: 1U = dose needed to kill 50% of the bacteria (IC50); peptide 20, 10, 4, 2 µg/ml; 4 h at 37°C; colonies counted on LB agar; logistic 4 parameter model (drda); isolate from mouse ileum; means of two independent experiments. The method, then:
as §1, §2, §3

A further experiment relates to Escherichia coli. Described as above. As to conditions: 1U = dose needed to kill 50% of the bacteria (IC50); peptide 20, 10, 4, 2 µg/ml; 4 h at 37°C; colonies counted on LB agar; logistic 4 parameter model (drda); isolate from mouse ileum; means of two independent experiments. The method, then: as §1, §2, §3

The text below walks through data of PMC11840258, “Detection of chimeric alpha-defensin transcripts and peptides in mouse Paneth cells” (Frontiers in Immunology, 2025).

No end group written: not given here.

Turning to “Defa31: custom-synthesized mature peptide of parental mouse α-defensin Defa31 (PRCPPCPRCSWCPRCPTCPRCNCNPK; ends and bridges not checked; cysteine pairing not given here; UniProt P50715 66-91, looked up)”, in experiment [1], the “Specific activity of cell killing, Mean” value was 334 U/mg. Also, the “Specific activity of cell killing, E. fecalis” value in the experiment on Enterococcus fecalis is listed as 189 U/mg. For the same substance, in experiment [2], the “Specific activity of cell killing, C. rodentium” value is listed as 314 U/mg. In experiment [3], the “Specific activity of cell killing, S. nepalensis” value is on record as 437 U/mg. Also, the “Specific activity of cell killing, E. coli” value in the experiment with Escherichia coli amounted to 397 U/mg.

On to “Defa24: custom-synthesized mature peptide of parental mouse α-defensin Defa24 (LRDLVCYCRARGCKGRERMNGTCSKGHLLYMLCC; ends and bridges not checked; cysteine pairing not given here; UniProt Q5G865 59-92, looked up)”, for which, in experiment [1], the “Specific activity of cell killing, Mean” value is on record as 58 U/mg. Also, the “Specific activity of cell killing, E. fecalis” value in the experiment with Enterococcus fecalis was 23 U/mg. Moreover, the “Specific activity of cell killing, C. rodentium” value in experiment [2] is listed as 77 U/mg. Besides, in experiment [3], the “Specific activity of cell killing, S. nepalensis” value came to 8 U/mg. Besides, the “Specific activity of cell killing, E. coli” value in the experiment with Escherichia coli stood at 122 U/mg.
